From the supplement of paper PMC13207355

Columns and labels:
Conditions in all cases: exposure time: 72 h
[1] = system: E13 (patient-derived glioblastoma stem cells of classical subtype); assay: surviving fraction (nuclei count normalised to DMSO); higher = more cells surviving (less toxic)
[2] = system: E21 (patient-derived glioblastoma stem cells of mesenchymal subtype); assay: as above
[3] = system: E28 (patient-derived glioblastoma stem cells of classical subtype); assay: as above
[4] = system: E31 (patient-derived glioblastoma stem cells of proneural subtype); assay: as above
[5] = system: E34 (patient-derived glioblastoma stem cells of proneural subtype); assay: as above
[6] = system: E57 (patient-derived glioblastoma stem cells of mesenchymal subtype); assay: as above
[7] = system: FT3469 (normal neural stem cell line); assay: as above
[8] = system: E13; assay: phenotypic distance (Euclidean, principal components) from DMSO controls (arbitrary units); higher = stronger morphological change
[9] = system: E21; assay: as above
[10] = system: E28; assay: as above
[11] = system: E31; assay: as above
[12] = system: E34; assay: as above
[13] = system: E57; assay: as above
[14] = system: FT3469; assay: as above
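Throughout, for phenotypic distance (Euclidean, principal components) from DMSO controls: cell Painting imaging in 384-well plates, CellProfiler features reduced to at least 20 principal components, Euclidean distance versus same-plate DMSO vehicle wells (0.1% v/v), median over six images per well.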
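Throughout, for surviving fraction (nuclei count normalised to DMSO): nuclei counted by high-content imaging of Hoechst-stained cells in laminin-coated 384-well plates, relative to 0.1% DMSO vehicle wells, with staurosporine as cell-death control.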

Work on `CCCSc1ccc2[nH]c(NC(=O)OC)nc2c1` [Albendazole] yielded a surviving fraction ([1]; 4.1 nM) of 0.787, a surviving fraction ([1]; 12.3 nM) of 0.877 and a surviving fraction ([1]; 37 nM) of 0.931. The surviving fraction ([1]; 111.1 nM) was 0.655, the surviving fraction ([1]; 333.3 nM) was 0.439 and the surviving fraction ([1]; 1000 nM) was 0.373. For the same compound, the surviving fraction ([1]; 3000 nM) was 0.222, the surviving fraction ([2]; 4.1 nM) was 0.887 and the surviving fraction ([2]; 12.3 nM) was 0.807. For the same compound, the surviving fraction ([2]; 37 nM) was 0.834, the surviving fraction ([2]; 111.1 nM) was 0.804 and the surviving fraction ([2]; 333.3 nM) was 0.755. It also gave a surviving fraction ([2]; 1000 nM) of 0.169, a surviving fraction ([2]; 3000 nM) of 0.118 and a surviving fraction ([3]; 4.1 nM) of 0.86. The surviving fraction ([3]; 12.3 nM) was 0.988, the surviving fraction ([3]; 37 nM) was 0.734 and the surviving fraction ([3]; 111.1 nM) was 1.04. For the same compound, the surviving fraction ([3]; 333.3 nM) was 0.719, the surviving fraction ([3]; 1000 nM) was 0.536 and the surviving fraction ([3]; 3000 nM) was 0.28. The surviving fraction ([4]; 4.1 nM) was 0.993, the surviving fraction ([4]; 12.3 nM) was 0.833 and the surviving fraction ([4]; 37 nM) was 0.874. The surviving fraction ([4]; 111.1 nM) was 0.758, the surviving fraction ([4]; 333.3 nM) was 0.408 and the surviving fraction ([4]; 1000 nM) was 0.186. For the same compound, the surviving fraction ([4]; 3000 nM) was 0.0928, the surviving fraction ([5]; 4.1 nM) was 0.934 and the surviving fraction ([5]; 12.3 nM) was 1.06. For the same compound, the surviving fraction ([5]; 37 nM) was 0.937, the surviving fraction ([5]; 111.1 nM) was 0.927 and the surviving fraction ([5]; 333.3 nM) was 0.656. For the same compound, the surviving fraction ([5]; 1000 nM) was 0.476, the surviving fraction ([5]; 3000 nM) was 0.439 and the surviving fraction ([6]; 4.1 nM) was 1.02. The surviving fraction ([6]; 12.3 nM) was 0.99, the surviving fraction ([6]; 37 nM) was 0.873 and the surviving fraction ([6]; 111.1 nM) was 0.909. The surviving fraction ([6]; 333.3 nM) was 0.715, the surviving fraction ([6]; 1000 nM) was 0.257 and the surviving fraction ([6]; 3000 nM) was 0.0825. The surviving fraction ([7]; 4.1 nM) was 0.783, the surviving fraction ([7]; 12.3 nM) was 0.812 and the surviving fraction ([7]; 37 nM) was 0.76. It also gave a surviving fraction ([7]; 111.1 nM) of 0.924, a surviving fraction ([7]; 333.3 nM) of 0.725 and a surviving fraction ([7]; 1000 nM) of 0.662. The surviving fraction ([7]; 3000 nM) was 0.504, the phenotypic distance ([8]; 4.1 nM) was 1.01 and the phenotypic distance ([8]; 12.3 nM) was 0.56. For the same compound, the phenotypic distance ([8]; 37 nM) was 0.737, the phenotypic distance ([8]; 111.1 nM) was 2.95 and the phenotypic distance ([8]; 333.3 nM) was 4.43. For the same compound, the phenotypic distance ([8]; 1000 nM) was 4.68, the phenotypic distance ([8]; 3000 nM) was 7.36 and the phenotypic distance ([9]; 4.1 nM) was 1.02. For the same compound, the phenotypic distance ([9]; 12.3 nM) was 0.918, the phenotypic distance ([9]; 37 nM) was 1.01 and the phenotypic distance ([9]; 111.1 nM) was 1.35. The phenotypic distance ([9]; 333.3 nM) was 3.4, the phenotypic distance ([9]; 1000 nM) was 7.12 and the phenotypic distance ([9]; 3000 nM) was 8.62. The phenotypic distance ([10]; 4.1 nM) was 0.748, the phenotypic distance ([10]; 12.3 nM) was 0.904 and the phenotypic distance ([10]; 37 nM) was 0.875. The phenotypic distance ([10]; 111.1 nM) was 1.25, the phenotypic distance ([10]; 333.3 nM) was 2.28 and the phenotypic distance ([10]; 1000 nM) was 3.22. It also gave a phenotypic distance ([10]; 3000 nM) of 3.85, a phenotypic distance ([11]; 4.1 nM) of 0.384 and a phenotypic distance ([11]; 12.3 nM) of 0.712. It also gave a phenotypic distance ([11]; 37 nM) of 0.564, a phenotypic distance ([11]; 111.1 nM) of 1.13 and a phenotypic distance ([11]; 333.3 nM) of 3.4. For the same compound, the phenotypic distance ([11]; 1000 nM) was 5.94, the phenotypic distance ([11]; 3000 nM) was 5.22 and the phenotypic distance ([12]; 4.1 nM) was 0.51. For the same compound, the phenotypic distance ([12]; 12.3 nM) was 1.47, the phenotypic distance ([12]; 37 nM) was 1.32 and the phenotypic distance ([12]; 111.1 nM) was 0.857. It also gave a phenotypic distance ([12]; 333.3 nM) of 2.54, a phenotypic distance ([12]; 1000 nM) of 3.76 and a phenotypic distance ([12]; 3000 nM) of 5.5. The phenotypic distance ([13]; 4.1 nM) was 0.729, the phenotypic distance ([13]; 12.3 nM) was 1.11 and the phenotypic distance ([13]; 37 nM) was 0.859. For the same compound, the phenotypic distance ([13]; 111.1 nM) was 1.5, the phenotypic distance ([13]; 333.3 nM) was 3.52 and the phenotypic distance ([13]; 1000 nM) was 5.59. For the same compound, the phenotypic distance ([13]; 3000 nM) was 4.71, the phenotypic distance ([14]; 4.1 nM) was 0.912 and the phenotypic distance ([14]; 12.3 nM) was 1.05. It also gave a phenotypic distance ([14]; 37 nM) of 0.721, a phenotypic distance ([14]; 111.1 nM) of 1.33 and a phenotypic distance ([14]; 333.3 nM) of 2.27. The phenotypic distance ([14]; 1000 nM) was 3.43 and the phenotypic distance ([14]; 3000 nM) was 3.98.
Work on `CCC(=O)OCC(=O)[C@@]1(OC(=O)CC)[C@H](C)C[C@H]2[C@H]3[C@H]([C@@H](O)C[C@@]21C)[C@@]1(C)C=CC(=O)C=C1C[C@H]3Cl` [Alclometasone dipropionate] yielded a surviving fraction ([1]; 4.1 nM) of 0.975, a surviving fraction ([1]; 12.3 nM) of 0.888 and a surviving fraction ([1]; 37 nM) of 0.926. The surviving fraction ([1]; 111.1 nM) was 0.859, the surviving fraction ([1]; 333.3 nM) was 0.951 and the surviving fraction ([1]; 1000 nM) was 0.974. The surviving fraction ([1]; 3000 nM) was 0.671, the surviving fraction ([2]; 4.1 nM) was 1.32 and the surviving fraction ([2]; 12.3 nM) was 1.26. The surviving fraction ([2]; 37 nM) was 1.21, the surviving fraction ([2]; 111.1 nM) was 1.39 and the surviving fraction ([2]; 333.3 nM) was 1.2. For the same compound, the surviving fraction ([2]; 1000 nM) was 1.2, the surviving fraction ([2]; 3000 nM) was 1.1 and the surviving fraction ([3]; 4.1 nM) was 1.25. It also gave a surviving fraction ([3]; 12.3 nM) of 0.854, a surviving fraction ([3]; 37 nM) of 1.17 and a surviving fraction ([3]; 111.1 nM) of 0.928. For the same compound, the surviving fraction ([3]; 333.3 nM) was 1.08, the surviving fraction ([3]; 1000 nM) was 1.38 and the surviving fraction ([3]; 3000 nM) was 0.939. It also gave a surviving fraction ([4]; 4.1 nM) of 1.3, a surviving fraction ([4]; 12.3 nM) of 1.46 and a surviving fraction ([4]; 37 nM) of 1.4. It also gave a surviving fraction ([4]; 111.1 nM) of 1.41, a surviving fraction ([4]; 333.3 nM) of 1.12 and a surviving fraction ([4]; 1000 nM) of 1.19. It also gave a surviving fraction ([4]; 3000 nM) of 1.23, a surviving fraction ([5]; 4.1 nM) of 1.1 and a surviving fraction ([5]; 12.3 nM) of 1.15. For the same compound, the surviving fraction ([5]; 37 nM) was 1.1, the surviving fraction ([5]; 111.1 nM) was 1.1 and the surviving fraction ([5]; 333.3 nM) was 0.991. It also gave a surviving fraction ([5]; 1000 nM) of 1.06, a surviving fraction ([5]; 3000 nM) of 0.984 and a surviving fraction ([6]; 4.1 nM) of 1.12. The surviving fraction ([6]; 12.3 nM) was 1.18, the surviving fraction ([6]; 37 nM) was 1.1 and the surviving fraction ([6]; 111.1 nM) was 1.07. It also gave a surviving fraction ([6]; 333.3 nM) of 1.11, a surviving fraction ([6]; 1000 nM) of 1.14 and a surviving fraction ([6]; 3000 nM) of 1.13. The surviving fraction ([7]; 4.1 nM) was 1.16, the surviving fraction ([7]; 12.3 nM) was 1.29 and the surviving fraction ([7]; 37 nM) was 1.33. The surviving fraction ([7]; 111.1 nM) was 1.15, the surviving fraction ([7]; 333.3 nM) was 1.07 and the surviving fraction ([7]; 1000 nM) was 1.19. It also gave a surviving fraction ([7]; 3000 nM) of 1.02, a phenotypic distance ([8]; 4.1 nM) of 1.28 and a phenotypic distance ([8]; 12.3 nM) of 1.12. It also gave a phenotypic distance ([8]; 37 nM) of 1.27, a phenotypic distance ([8]; 111.1 nM) of 1.15 and a phenotypic distance ([8]; 333.3 nM) of 1.25. It also gave a phenotypic distance ([8]; 1000 nM) of 1.24, a phenotypic distance ([8]; 3000 nM) of 1.47 and a phenotypic distance ([9]; 4.1 nM) of 1.94. It also gave a phenotypic distance ([9]; 12.3 nM) of 2.13, a phenotypic distance ([9]; 37 nM) of 2.45 and a phenotypic distance ([9]; 111.1 nM) of 3.04. The phenotypic distance ([9]; 333.3 nM) was 2.13, the phenotypic distance ([9]; 1000 nM) was 2.23 and the phenotypic distance ([9]; 3000 nM) was 2.27. The phenotypic distance ([10]; 4.1 nM) was 0.573, the phenotypic distance ([10]; 12.3 nM) was 0.69 and the phenotypic distance ([10]; 37 nM) was 0.865. The phenotypic distance ([10]; 111.1 nM) was 0.821, the phenotypic distance ([10]; 333.3 nM) was 0.465 and the phenotypic distance ([10]; 1000 nM) was 1.06. For the same compound, the phenotypic distance ([10]; 3000 nM) was 0.433, the phenotypic distance ([11]; 4.1 nM) was 2.71 and the phenotypic distance ([11]; 12.3 nM) was 4.05. The phenotypic distance ([11]; 37 nM) was 4.11, the phenotypic distance ([11]; 111.1 nM) was 3.84 and the phenotypic distance ([11]; 333.3 nM) was 2.94. It also gave a phenotypic distance ([11]; 1000 nM) of 3.4, a phenotypic distance ([11]; 3000 nM) of 3.3 and a phenotypic distance ([12]; 4.1 nM) of 0.626. For the same compound, the phenotypic distance ([12]; 12.3 nM) was 1.12, the phenotypic distance ([12]; 37 nM) was 0.662 and the phenotypic distance ([12]; 111.1 nM) was 1.42. The phenotypic distance ([12]; 333.3 nM) was 1.36, the phenotypic distance ([12]; 1000 nM) was 1.38 and the phenotypic distance ([12]; 3000 nM) was 1.48. For the same compound, the phenotypic distance ([13]; 4.1 nM) was 1.91, the phenotypic distance ([13]; 12.3 nM) was 2.63 and the phenotypic distance ([13]; 37 nM) was 2.58. For the same compound, the phenotypic distance ([13]; 111.1 nM) was 2.62, the phenotypic distance ([13]; 333.3 nM) was 3.15 and the phenotypic distance ([13]; 1000 nM) was 3.25. For the same compound, the phenotypic distance ([13]; 3000 nM) was 2.81, the phenotypic distance ([14]; 4.1 nM) was 1.11 and the phenotypic distance ([14]; 12.3 nM) was 1.62. The phenotypic distance ([14]; 37 nM) was 1.67, the phenotypic distance ([14]; 111.1 nM) was 2.12 and the phenotypic distance ([14]; 333.3 nM) was 1.8. The phenotypic distance ([14]; 1000 nM) was 1.92 and the phenotypic distance ([14]; 3000 nM) was 1.23.
